Patent US10100022B2, “Sphingosine kinase inhibitors” (University of Virginia Patent Foundation, priority 2014, dated 2018)
Structures can show the parent of a compound that is named as a salt.

Key:
[1] = target: T1, human sphingosine kinase type 1 (hSPHK1) (Homo sapiens, UniProt Q9NYA1); assay: Sphingosine kinase assay, recombinant human SPHK1 ([32P]S1P product, scintillation counting); assay type: biochemical; conditions: read-out: activity hSPHK1 (range estimate of KI)
T1 construct: made in house; host or cells: Sf9 insect cells (baculovirus)
Method: (§1) Recombinant baculovirus encoding human sphingosine kinase type 1 (SPHK1) was used to infect Sf9 insect cells and after 2-5 days, cleared lysates were prepared and used without further purification. Human SPHK2, which was partially purified from baculovirus-infected Sf9 cell lysates, was purchased from a commercial source. Sphingosine kinase assays were performed using standard protocols. Product [^32P]S1P was recovered by binding to cation exchange paper and quantified by scintillation counting.

[2] = target: T2, human sphingosine kinase type 2 (hSPHK2) (Homo sapiens, UniProt Q9NRA0); assay: Sphingosine kinase assay, recombinant human SPHK2 ([32P]S1P product, scintillation counting); assay type: biochemical; conditions: read-out: activity hSPHK2 (range estimate of KI)
T2 construct: purchased; host or cells: Sf9 insect cells (baculovirus)
T2 sequence (Q9NRA0 1-654): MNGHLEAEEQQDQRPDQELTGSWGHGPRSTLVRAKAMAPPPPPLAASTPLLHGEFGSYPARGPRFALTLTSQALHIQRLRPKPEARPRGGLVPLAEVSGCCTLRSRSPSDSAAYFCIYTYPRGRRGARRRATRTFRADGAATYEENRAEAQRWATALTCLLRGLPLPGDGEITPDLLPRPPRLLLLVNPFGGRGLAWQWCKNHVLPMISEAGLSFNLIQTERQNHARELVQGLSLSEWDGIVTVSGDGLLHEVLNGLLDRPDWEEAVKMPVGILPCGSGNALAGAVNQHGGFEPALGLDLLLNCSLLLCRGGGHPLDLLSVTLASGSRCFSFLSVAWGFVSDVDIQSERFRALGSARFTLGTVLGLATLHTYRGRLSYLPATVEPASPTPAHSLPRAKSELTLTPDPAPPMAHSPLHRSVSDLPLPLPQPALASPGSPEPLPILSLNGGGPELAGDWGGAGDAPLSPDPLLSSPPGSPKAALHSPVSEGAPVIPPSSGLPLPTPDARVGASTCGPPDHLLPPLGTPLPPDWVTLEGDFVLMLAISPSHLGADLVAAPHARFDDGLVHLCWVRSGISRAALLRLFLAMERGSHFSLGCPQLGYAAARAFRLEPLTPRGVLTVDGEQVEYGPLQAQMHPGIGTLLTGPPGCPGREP
Method: as §1

T1 sequence (Q9NYA1 whole entry): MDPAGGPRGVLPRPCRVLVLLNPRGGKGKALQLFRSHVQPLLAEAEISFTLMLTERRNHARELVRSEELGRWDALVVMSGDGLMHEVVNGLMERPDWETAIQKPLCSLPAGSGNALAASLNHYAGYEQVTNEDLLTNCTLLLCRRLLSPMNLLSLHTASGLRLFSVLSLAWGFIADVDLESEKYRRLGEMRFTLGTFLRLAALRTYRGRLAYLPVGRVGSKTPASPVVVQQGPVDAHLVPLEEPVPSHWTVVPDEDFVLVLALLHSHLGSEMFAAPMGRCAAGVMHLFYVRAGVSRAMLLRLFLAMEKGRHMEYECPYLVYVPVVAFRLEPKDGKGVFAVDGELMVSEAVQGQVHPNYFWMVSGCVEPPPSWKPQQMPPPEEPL

Q: How did the Ki [1] turn out when N=C(N)N1CCC[C@H]1c1nc(-c2ccc3cc(OCc4ccccc4)ccc3c2)no1 [Compound 73A, (S)-amino(2-(3-(6-(benzyloxy)naphthalen-2-yl)-1,2,4-oxadiazol-5-yl)pyrrolidin-1-yl)methaniminium chloride] was run?
A: > 10 µM

Q: And the Ki [2]?
A: > 10 µM

Q: How did the Ki [1] turn out when CCCCCCCCn1ccc2c(-c3noc([C@@H]4CCCN4C(=N)N)n3)cccc21 [Compound 9B, (S)-amino(2-(3-(1-octyl-1H-indol-4-yl)-1,2,4-oxadiazol-5-yl)pyrrolidin-1-yl)methaniminium chloride] was run?
A: > 10 µM

Q: And the Ki [2]?
A: < 1 µM

Q: Which Ki [1] does the source give for CCCCCCCCOc1ccc(-c2noc([C@@H]3[C@@H](CO)CCN3C(=N)N)n2)cc1C(F)(F)F [Compound 20a, 2,2,2-trifluoroacetate] here?
A: < 1 µM

Q: And the Ki [2]?
A: < 1 µM

Q: CCCCCCCCOc1c(C)cc(-c2noc([C@@H]3CCCN3C(=N)N)n2)cc1C [Compound 7B] was tested. Which Ki [1] did it give?
A: > 10 µM

Q: And the Ki [2]?
A: < 1 µM

Q: N=C(N)N1CC[C@H](O)[C@H]1c1nc(-c2ccc(OCc3ccc(C(F)(F)F)cc3)c(C(F)(F)F)c2)no1 [Compound 24A, amino((2S,3S)-3-hydroxy-2-(3-(3-(trifluoromethyl)-4-((4-(trifluoromethyl)benzyl)oxy)phenyl)-1,2,4-oxadiazol-5-yl)pyrrolidin-1-yl)methaniminium chloride] was tested. Which Ki [1] did it give?
A: 1 to 10 µM

Q: And the Ki [2]?
A: < 1 µM

Q: What does the source list for CCCCCC=CCOc1ccc(-c2noc([C@@H]3CCCN3C(=N)N)n2)cc1C(F)(F)F [Compound 82A, (S)-amino(2-(3-(4-(oct-2-en-1-yloxy)-3-(trifluoromethyl)phenyl)-1,2,4-oxadiazol-5-yl)pyrrolidin-1-yl)methaniminium 2,2,2-trifluoroacetate]?
A: Ki [1]: > 10 µM; Ki [2]: < 1 µM

Q: Which results are given for N=C(N)N1CCC[C@H]1c1nc(-c2ccc(CCC3CC3)c(C(F)(F)F)c2)no1 [Compound 38A, (S)-2-(3-(4-(2-cyclopropylethyl)-3-(trifluoromethyl)phenyl)-1,2,4-oxadiazol-5-yl)pyrrolidine-1-carboximidamide hydrochloride]?
A: Ki [1]: > 10 µM; Ki [2]: 1 to 10 µM

Q: What does the source list for N=C(N)N1CCC[C@H]1c1nc(-c2ccc(OCCCCc3ccc(C(F)(F)F)cc3)c(C(F)(F)F)c2)no1 [Compound 26A, (S)-amino(2-(3-(3-(trifluoromethyl)-4-(4-(4-(trifluoromethyl)phenyl)butoxy)phenyl)-1,2,4-oxadiazol-5-yl)pyrrolidin-1-yl)methaniminium chloride]?
A: Ki [1]: > 10 µM; Ki [2]: < 1 µM

Q: CCCCCCCOc1ccc2cc(-c3noc([C@@H]4CCCN4C(=N)N)n3)ccc2c1 [Compound 13A, (S)-amino(2-(3-(6-(heptyloxy)naphthalen-2-yl)-1,2,4-oxadiazol-5-yl)pyrrolidin-1-yl)methaniminium chloride] was tested. Which Ki [1] did it give?
A: > 10 µM

Q: And the Ki [2]?
A: 1 to 10 µM

Q: CCCc1ccc(CCc2ccc(-c3noc([C@@H]4[C@@H](O)CCN4C(=N)N)n3)cc2C(F)(F)F)cc1 [Compound 34A, (2S,3S)-3-hydroxy-2-(3-(4-(4-propylphenethyl)-3-(trifluoromethyl)phenyl)-1,2,4-oxadiazol-5-yl)pyrrolidine-1-carboximidamide hydrochloride] was tested. Which Ki [1] did it give?
A: 1 to 10 µM

Q: What about the Ki [2] of the same compound?
A: < 1 µM

Q: CC(C)COc1ccc2cc(-c3noc([C@@H]4[C@@H](O)CCN4C(=N)N)n3)ccc2c1 [Compound 15A, Amino((2S,3S)-3-hydroxy-2-(3-(6-isobutoxynaphthalen-2-yl)-1,2,4-oxadiazol-5-yl)pyrrolidin-1-yl)methaniminium chloride] was tested. Which Ki [1] did it give?
A: 1 to 10 µM

Q: And the Ki [2]?
A: > 10 µM

Q: What does the source list for CCCCCCCCOc1ccc(-c2noc([C@@H]3C[C@@H](F)CN3C(=N)N)n2)cc1C(F)(F)F [Compound 49A]?
A: Ki [1]: > 10 µM; Ki [2]: < 1 µM

Q: What does the source list for CCCCCCCCOc1ccc(-c2noc([C@@H]3CCCN3C(=N)N)n2)cc1Br [Compound 4B]?
A: Ki [1]: > 10 µM; Ki [2]: < 1 µM

Q: What does the source list for CCCCc1ccc(CCc2ccc(-c3noc([C@@H]4CCCN4C(=N)N)n3)cc2C(F)(F)F)cc1 [Compound 36A, (S)-2-(3-(4-(4-butylphenethyl)-3-(trifluoromethyl)phenyl)-1,2,4-oxadiazol-5-yl)pyrrolidine-1-carboximidamide hydrochloride]?
A: Ki [1]: > 10 µM; Ki [2]: < 1 µM

Q: Which results are given for CCCc1ccc(CCc2ccc(-c3noc([C@@H]4CCCN4C(=N)N)n3)cc2C(F)(F)F)cc1 [Compound 35A, (S)-2-(3-(4-(4-propylphenethyl)-3-(trifluoromethyl)phenyl)-1,2,4-oxadiazol-5-yl)pyrrolidine-1-carboximidamide hydrochloride]?
A: Ki [1]: > 10 µM; Ki [2]: < 1 µM

Q: Which results are given for N=C(N)N1CCC[C@H]1c1nc(-c2ccc3cc(OCCc4ccc(C(F)(F)F)cc4)ccc3c2)no1 [Compound 54A, (S)-amino(2-(3-(6-(4-(trifluoromethyl)phenethoxy)naphthalen-2-yl)-1,2,4-oxadiazol-5-yl)pyrrolidin-1-yl)methaniminium chloride]?
A: Ki [1]: > 10 µM; Ki [2]: > 10 µM

Q: What does the source list for COCCCCOc1ccc2cc(-c3noc([C@@H]4CCCN4C(=N)N)n3)ccc2c1 [Compound 65A, (S)-amino(2-(3-(6-(4-methoxybutoxy)naphthalen-2-yl)-1,2,4-oxadiazol-5-yl)pyrrolidin-1-yl)methaniminium chloride]?
A: Ki [1]: > 10 µM; Ki [2]: > 10 µM

Q: What does the source list for CCCCCCCCCCn1ccc2c(-c3noc([C@@H]4CCCN4C(=N)N)n3)cccc21 [Compound 11B, (S)-amino(2-(3-(1-decyl-1H-indol-4-yl)-1,2,4-oxadiazol-5-yl)pyrrolidin-1-yl)methaniminium chloride]?
A: Ki [1]: > 10 µM; Ki [2]: < 1 µM

Q: What does the source list for N=C(N)N1CCC[C@H]1c1nc(-c2ccc3cc(O)ccc3c2)no1 [Compound 51A, (S)-amino(2-(3-(6-hydroxynaphthalen-2-yl)-1,2,4-oxadiazol-5-yl)pyrrolidin-1-yl)methaniminium chloride]?
A: Ki [1]: > 10 µM; Ki [2]: > 10 µM

Q: What does the source list for CCCCCOc1ccc2cc(-c3noc([C@@H]4[C@@H](O)CCN4C(=N)N)n3)ccc2c1 [Compound 14B, Amino((2S,3S)-3-hydroxy-2-(3-(6-(pentyloxy)naphthalen-2-yl)-1,2,4-oxadiazol-5-yl)pyrrolidin-1-yl)methaniminium chloride]?
A: Ki [1]: < 1 µM; Ki [2]: < 1 µM

Q: With CCCCCCCCOc1ccc(-c2nnc([C@@H]3CCCN3C(=N)N)s2)cc1C(F)(F)F [Compound 5B] as the compound, how does the Ki [1] read?
A: > 10 µM

Q: What about the Ki [2] of the same compound?
A: < 1 µM

Q: What does the source list for CC(C)COc1ccc2cc(-c3noc([C@@H]4CCCN4C(=N)N)n3)ccc2c1 [Compound 14A, (S)-amino(2-(3-(6-isobutoxynaphthalen-2-yl)-1,2,4-oxadiazol-5-yl)pyrrolidin-1-yl)methaniminium chloride]?
A: Ki [1]: > 10 µM; Ki [2]: > 10 µM

Q: How did the Ki [1] turn out when N=C(N)N1CCC[C@H]1c1nc(-c2ccc(OCCCc3ccc(C(F)(F)F)cc3)c(C(F)(F)F)c2)no1 [Compound 32A, (S)-amino(2-(3-(3-(trifluoromethyl)-4-(3-(4-(trifluoromethyl)phenyl)propoxy)phenyl)-1,2,4-oxadiazol-5-yl)pyrrolidin-1-yl)methaniminium chloride] was run?
A: > 10 µM

Q: What about the Ki [2] of the same compound?
A: < 1 µM

Q: How did the Ki [1] turn out when N=C(N)N1CCC[C@H]1c1nc(-c2ccc(OC/C=C/c3ccc(C(F)(F)F)cc3)c(C(F)(F)F)c2)no1 [Compound 88A, (S,E)-amino(2-(3-(3-(trifluoromethyl)-4-((3-(4-(trifluoromethyl)phenyl)allyl)oxy)phenyl)-1,2,4-oxadiazol-5-yl)pyrrolidin-1-yl)methaniminium 2,2,2-trifluoroacetate] was run?
A: > 10 µM

Q: What about the Ki [2] of the same compound?
A: < 1 µM

Q: Which results are given for CCCCCCCCn1cc(-c2noc([C@@H]3CCCN3C(=N)N)n2)c2ccccc21 [Compound 74A, (S)-amino(2-(3-(1-octyl-1H-indol-3-yl)-1,2,4-oxadiazol-5-yl)pyrrolidin-1-yl)methaniminium chloride]?
A: Ki [1]: > 10 µM; Ki [2]: 1 to 10 µM

Q: Which results are given for N=C(N)N1CCC[C@H]1c1nc(-c2ccc3cc(OCc4ccc(Cl)cc4)ccc3c2)no1 [Compound 69A, (S)-amino(2-(3-(6-((4-chlorobenzyl)oxy)naphthalen-2-yl)-1,2,4-oxadiazol-5-yl)pyrrolidin-1-yl)methaniminium chloride]?
A: Ki [1]: > 10 µM; Ki [2]: > 10 µM

Q: With N=C(N)N1CCC[C@H]1c1nc(-c2ccc3cc(OCc4cccc(Br)c4)ccc3c2)no1 [Compound 58A, (S)-amino(2-(3-(6-((3-bromobenzyl)oxy)naphthalen-2-yl)-1,2,4-oxadiazol-5-yl)pyrrolidin-1-yl)methaniminium chloride] as the compound, how does the Ki [1] read?
A: > 10 µM

Q: What about the Ki [2] of the same compound?
A: > 10 µM

Q: How did the Ki [1] turn out when N=C(N)N1CCC[C@H]1c1nc(-c2ccc3cc(OCCc4ccccc4C(F)(F)F)ccc3c2)no1 [Compound 55A, (S)-amino(2-(3-(6-(2-(trifluoromethyl)phenethoxy)naphthalen-2-yl)-1,2,4-oxadiazol-5-yl)pyrrolidin-1-yl)methaniminium chloride] was run?
A: > 10 µM

Q: And the Ki [2]?
A: > 10 µM
